Measured values taken from patent US20060275873A1, “Autoinducer compound to improve the productivity of natamycin streptomyces strains” (priority 2003, published 2006).
“Also recorded” adds a separate entry of the source.

Columns and labels:
[1] = tested on: Streptomyces natalensis npi287; assay: Inducer bioassay: induction of natamycin production in mutant npi287 on solid SPG medium, read as inhibition zone in a Candida utilis overlay; format: cell-based; conditions: for inducing activity on natamycin production by npi287: bioassay, Streptomyces natalensis npi287
Procedure: Dose-response representation is obtained from measuring points at 0, 110, 166, 220, 333, 446 and 500 nM of IP factor. Y-axis: natamycin-induced inhibition zone diameter in Candida utilis overlays in cm (see Example 5); x-axis: concentration of IP factor in nM.
The biological activity of IP factor was determined by its ability to induce natamycin production by mutant strain Streptomyces natalensis npi287 in solid SPG medium. After allowing growth of Streptomyces natalensis npi287 for 2 days at 30° C., samples of culture broths […] or different fractions from IP factor purification were added to wells (7 mm diameter) in the agar layer. The plate was overlaid with a culture of Candida utilis and incubated for 24 h at 28° C. The increment of the diameter of the natamycin inhibition zone after induction of natamycin in strain npi287 was proportional to the amount of IP factor in the sample.
The availability of the pure IP factor made it possible to quantify its inducing effect using the standard inducer assay with the npi287 strain (FIG. 2). […] The IP factor increased two-fold the diameter of natamycin inhibition zone (to above 50 millimeters) at concentration of 350 nM and the assay was saturated at concentrations above 400 nM. A threshold level of IP factor of about 50 nM was always required to detect the induction of natamycin production.

Streptomyces griseus HH1 [2] = conditions: stated as well-known; cited from earlier work
Streptomyces griseus HH1 [3] = assay: Restoration of streptomycin production in the A factor negative strain; format: cell-based; conditions: HPLC-pure IP factor, Streptomyces griseus HH1 mutant
Source text: In the examples given below, the following strains were used: The wild type Streptomyces natalensis ATCC 27448 was used as the parental strain to isolate different npi mutants. Streptomyces natalensis cultures were maintained in solid TBO sporulation medium (containing 20 g tomato paste per liter; 25 g oat meal per liter; and 25 g agar per liter) as described by Aparicio et al. (Chem. Biol. 7, 895-905, 2000). Candida utilis CECT 1061 (synonym Pichia jadinii) was used as test strain in the bioassay of the antifungal activity of natamycin. Cultures of Streptomyces griseus IFO 13350 (formerly described as Streptomyces bikiniensis IFO 13350) were used to produce A factor in YMPG medium (Horinouchi et al., J. Antibiot. 38, 636-641, 1985). Streptomyces griseus HH1 (an A factor negative strain) was used to quantify the A factor inducing activity.
The Streptomyces griseus 35570 A factor was purified by following its biological activity on the test strain Streptomyces griseus HH1, a mutant lacking streptomycin production due to its deficiency in A factor biosynthesis.

[4] = Solvent extraction of clarified culture broth (partition between organic and aqueous phase); format: physicochemical
Procedure: The culture broth (15 liters) from Streptomyces natalensis wild type strain grown for 24 h in YED medium in a Braun Biostat C fermentor was concentrated 10-fold in a vacuum evaporator. The concentrated broth was clarified by precipitating the proteins with 6M HCl at pH 3.0 in the cold room. The clarified broth was adjusted to pH 7.0 with concentrated NaOH and extracted. […] Enough IP factor could be extracted by repeated extractions with ethyl acetate to allow a good purification. The organic phases were then collected and concentrated to dryness under vacuum and the resultant product was dissolved in 100 ml of 10% methanol (v/v) and applied to an active carbon column (30×3 cm) previously equilibrated with the same solvent (10% methanol, v/v). The retained compounds including the IP factor were fractionated by stepwise elution (flow 2 ml/min) with 50% methanol (v/v), 100% methanol, 10% ethyl acetate in methanol (v/v), 50% ethyl acetate in methanol (v/v), and pure ethyl acetate (100%). […] The IP factor-containing fraction was then concentrated, applied onto a Sephadex GIO column (2000×1 cm) and eluted with distilled water (flow 0.8 ml/min). This size exclusion chromatography yielded 40 ml of active fractions.

[5] = tested on: Streptomyces natalensis (wild type and npi287 mutant); assay: Stimulation of sporulation of Streptomyces natalensis; format: cell-based
[6] = tested on: Streptomyces natalensis ATCC 27448; assay: Natamycin production in liquid cultures of the wild type strain with exogenous auto inducer; format: cell-based; conditions: 300 nM
Source text: FIG. 3A: Cell dry weight (▪); y-axis: dry weight concentration in mg/ml; x-axis: time in hours. FIG. 3B: (▴) Control without IP factor addition; (O) with IP factor addition; y-axis: natamycin concentration in μg/ml; x-axis: time in hours.
FIG. 4A: Cell dry weight (♦); y-axis: dry weight concentration in mg/ml; x-axis: time in hours. FIG. 4B: (▪) Control without IP factor addition; (□) with IP factor addition; y-axis: natamycin concentration in μg/ml; x-axis: time in hours.
FIG. 5A: Cell dry weight (▴); y-axis: dry weight concentration in mg/ml; x-axis: time in hours. FIG. 5B: (▪) Control without IP factor addition; (□) with IP factor addition; y-axis: natamycin concentration in μg/ml; x-axis: time in hours.
Four different complex media were used for quantification of the IP factor concentration and its relationship to natamycin production. These include: NBG medium (OXOID) supplemented with glucose (5 g/l); YEME medium (yeast extract 3 g/l; peptone […]; malt extract 3 g/l and glucose 10 g/l); TSB medium (DIFCO) and YED medium (yeast extract 10 g/l; glucose 10 g/l). In addition two defined media were also used to quantify the inducer production: Streptomyces MM (Kieser et al. in “Practical Streptomyces Genetics”, John Innes Foundation, Norwich, UK, 2000) and Lechevalier defined medium (Martin and McDaniel, Eur. J. Appl. Microbiol. 3, 135-144, 1976).
The production of natamycin in liquid cultures was routinely quantified by spectrophotometric determination at 319 nm. A 0.5 ml aliquot of the culture was extracted with 5 ml of methanol and diluted with distilled water; the concentration of natamycin was quantified as described previously (Aparicio et al. (Chem. Biol. 7, 895-905, 2000)) using a pure sample of natamycin (Sigma Chem. Co) as standard.

SMILES	inducing activity on natamycin production by npi287 [1]	stimulation of sporulation (Streptomyces griseus HH1 [2])	diameter of natamycin inhibition zone ([1]; 350 nM IP factor)	fold increase of the diameter of natamycin inhibition zone ([1]; 350 nM IP factor)	threshold level required to detect induction of natamycin production ([1]; standard inducer assay)	IP factor concentration to which npi287 clearly responded ([1]; standard inducer assay, FIG. 2) [nM]	concentration above which the assay was saturated ([1]; standard inducer assay, FIG. 2)	upper concentration of linear response of antibiotic production ([1]; standard inducer assay, FIG. 2)	restoration of streptomycin production (Streptomyces griseus HH1 [3])	part remaining in the aqueous phase ([4]; ethyl acetate extraction at acidic, neutral or slightly basic (pH 7.5) pH)	part remaining in the aqueous phase ([4]; repeated extraction with chloroform)	stimulation of sporulation ([5]; npi287 mutant)	stimulation of sporulation ([5]; wild type Streptomyces natalensis)	production of natamycin on addition of exogenous inducer ([6]; NBG medium, FIG. 4)	production of natamycin on addition of exogenous inducer ([6]; TSB medium, FIG. 3)	production of natamycin on addition of exogenous inducer ([6]; YEME medium, FIG. 5)
CC(C)CCCCC(=O)[C@@H]1C(=O)OCC1CO (stereo partly drawn) [A factor, 2-(6′-methylheptanoyl)-3R-hydroxymethyl-4-butanolide, reference compound]	some inducing activity; also recorded: elicited natamycin production	stimulation of sporulation														
NC(CO)(CO)C(N)(CO)CO [IP factor, 2,3-diamino-2,3-bis(hydroxymethyl)-1,4-butanediol]	strong inducing activity		above 50 millimeters	two-fold	about 50 nM	100	above 400 nM	up to 350 nM	negative	significant proportion	about 80%	did not stimulate sporulation	did not stimulate sporulation	stimulated	stimulated	stimulated
